Values quoted from earlier work in patent publication US20240207338A1, “KETAMINE AND CANNABIS FOR THE TREATMENT OF EMOTIONAL DISORDERS” (Progressive Therapeutics Inc, priority 2021, published 2024).

Row | SMILES | potency for use in anesthesia relative to R-(−)-ketamine (versus R-(−)-ketamine) | potency for use in anesthesia relative to ketamine (versus ketamine)
1 | CN[C@]1(c2ccccc2Cl)CCCCC1=O [S-(+)-ketamine] | twice as potent | 
2 | NC1(c2ccccc2Cl)CCCCC1=O (centres unmarked) [norketamine] |  | one third the potency
